Data published in the supplement of paper PMC10307832.

Key:
Experiment in all cases: relative viability (nuclei count vs DMSO), 5 days (fraction); higher = more cells survive
[1] = compound: CCN1CCN(c2ccc(Nc3cc(N(C)C(=O)Nc4c(Cl)c(OC)cc(OC)c4Cl)ncn3)cc2)CC1 [BGJ398] + Cc1cc(Nc2cc(N3CCN(C)CC3)nc(Sc3ccc(NC(=O)C4CC4)cc3)n2)n[nH]1 [Tozasertib] (partner 0.1 µM)
Summary of the method: (§1)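 Values are medians from duplicate plates. Each reflects relative viability, defined as the nuclei count of treated wells over that of vehicle wells. Lung cancer cell lines in 1536-well plates were pin-tool dosed one day after seeding with one drug alone or with a fixed anchor-drug dose plus five library-drug doses (not always all listed) in √10 steps, then fixed, stained and imaged at 4× after 5 days.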

[2] = compound: CCN1CCN(c2ccc(Nc3cc(N(C)C(=O)Nc4c(Cl)c(OC)cc(OC)c4Cl)ncn3)cc2)CC1 [BGJ398] + Nc1ncn([C@H]2C[C@H](O)[C@@H](CO)O2)c(=O)n1 [Decitabine] (partner 2 µM)
Summary of the method: as §1

[3] = compound: C1=CC2=NC=CN=C2C=C1/C=C/3\C(=O)NC(=O)S3 + O=C(c1cc(Cc2n[nH]c(=O)c3ccccc23)ccc1F)N1CCN(C(=O)C2CC2)CC1 [Olaparib] (partner 8 µM)
Summary of the method: as §1

[4] = compound: C1=CC2=NC=CN=C2C=C1/C=C/3\C(=O)NC(=O)S3 + CS(=O)(=O)CCNCc1ccc(-c2ccc3ncnc(Nc4ccc(OCc5cccc(F)c5)c(Cl)c4)c3c2)o1 [Lapatinib] (partner 2 µM)
Summary of the method: as §1

Cell Line	relative viability ([1]; first compound 0.01 µM)	relative viability ([1]; first compound 0.03162 µM)	relative viability ([1]; first compound 0.1 µM)	relative viability ([1]; first compound 0.3162 µM)	relative viability ([1]; first compound 1 µM)	relative viability ([2]; first compound 0.01 µM)	relative viability ([2]; first compound 0.03162 µM)	relative viability ([2]; first compound 0.1 µM)	relative viability ([2]; first compound 0.3162 µM)	relative viability ([2]; first compound 1 µM)	relative viability ([3]; first compound 0.02 µM)	relative viability ([3]; first compound 0.06325 µM)	relative viability ([3]; first compound 0.2 µM)	relative viability ([3]; first compound 0.6325 µM)	relative viability ([3]; first compound 2 µM)	relative viability ([4]; first compound 0.02 µM)	relative viability ([4]; first compound 0.06325 µM)	relative viability ([4]; first compound 0.2 µM)	relative viability ([4]; first compound 0.6325 µM)	relative viability ([4]; first compound 2 µM)
HCC-78	0.355	0.461	0.445	0.419	0.476	0.616	0.701	0.682	0.777	0.695	0.792	0.72	0.786	0.861	0.619	0.701	0.729	0.91	0.554	0.168
HCC-366	0.128	0.111	0.092	0.0966	0.0852	0.336	0.371	0.355	0.306	0.347	0.318	–	0.374	0.351	0.373	0.999	0.927	1.03	0.905	1.04
HCC-827	0.325	–	0.441	0.363	0.401	0.286	–	0.332	0.185	0.27	0.654	0.528	0.585	0.593	0.662	0.217	0.247	0.209	0.215	0.233
HOP-62	0.375	0.399	0.411	0.395	0.364	0.232	0.245	0.204	0.225	0.215	0.481	0.389	0.357	0.452	0.424	1.04	0.796	0.944	1.05	0.958
IA-LM	–	–	–	–	–	–	–	–	–	–	0.404	1.02	0.797	0.836	0.871	0.69	–	0.698	0.771	0.65
LC-2-ad	0.451	0.489	0.486	0.474	0.374	0.699	0.855	0.899	0.771	0.852	0.63	0.811	0.692	0.611	0.344	0.927	1.04	0.949	0.924	0.797
LCLC-97TM1	0.239	0.224	0.293	0.23	0.35	0.238	0.222	0.214	0.216	0.225	0.354	0.372	0.36	0.334	0.281	0.751	1.12	1.73	0.817	0.27
LCLC-103H	0.429	0.445	0.424	0.487	0.341	0.714	0.631	0.67	0.628	0.566	0.75	0.788	0.727	0.725	0.729	–	–	–	–	–
LK-2	0.202	0.168	0.157	0.149	0.173	0.234	0.262	0.222	0.157	0.137	0.739	0.798	0.758	0.702	0.348	1.01	0.992	0.934	0.825	0.481
LOU-NH91	0.656	–	0.698	0.541	0.737	0.837	0.676	0.813	0.649	0.821	0.845	0.925	0.892	0.883	0.85	0.734	0.786	0.81	0.739	0.585
NCI-H441	0.702	0.652	0.529	0.615	0.687	–	0.26	0.275	0.273	0.224	0.539	0.708	0.559	0.481	0.345	–	–	–	–	–
NCI-H522	0.5	0.552	0.445	0.586	0.483	0.665	0.625	0.685	0.665	0.644	0.593	0.561	0.723	0.677	0.545	–	–	–	–	–
NCI-H1299	–	–	–	–	–	–	–	–	–	–	1.01	0.961	1.01	0.928	1.01	0.962	1.04	0.946	0.965	0.993
NCI-H1563	–	–	–	–	–	–	–	–	–	–	–	–	–	–	–	0.876	0.854	0.898	0.867	0.873
NCI-H1623	0.427	0.407	0.448	0.455	0.447	–	–	–	–	–	–	–	–	–	–	–	–	–	–	–
NCI-H1648	0.304	0.58	0.469	0.399	0.44	0.571	–	0.511	0.476	0.402	0.795	0.547	0.886	–	0.563	–	–	–	–	–
NCI-H1703	–	–	–	–	–	–	–	–	–	–	0.428	0.405	0.434	0.27	0.322	1.06	1.29	1.07	0.946	0.89
NCI-H1792	–	–	–	–	–	0.476	0.533	0.568	0.474	0.441	0.319	–	0.347	0.408	0.315	0.948	0.851	0.839	0.953	0.554
NCI-H2228	0.235	0.255	0.224	0.188	0.204	–	–	–	–	–	0.666	0.599	0.616	0.654	0.649	0.946	1.15	0.97	0.903	0.932
NCI-H2342	0.415	0.49	0.655	0.536	0.505	0.725	0.808	0.714	0.758	0.815	0.396	0.403	0.449	0.415	0.373	–	–	–	–	–
SW 900	0.55	0.552	0.495	0.484	0.429	0.447	0.421	0.371	0.469	0.43	0.789	0.769	0.884	–	0.727	–	–	–	–	–
